# Test results from ChEMBL document CHEMBL1201862, “PubChem BioAssay data set” (2004).
# The source made the active and inactive calls.
# Assays:
# Cytochrome P450 2C19 = Cytochrome P450 2C19 (Homo sapiens, UniProt P33261); assay: Cytochrome panel assay with activity outcomes. Panel member name: p450-cyp2c19 Compounds with AC50 equal or less than 10 uM are considered active; format: functional
# Cytochrome P450 1A2 = biological target: T1, Cytochrome P450 1A2 (Homo sapiens, UniProt P05177);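 also: PubChem cytochrome P450 panel assay, CYP1A2 panel member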
# T1 sequence (P05177 whole entry): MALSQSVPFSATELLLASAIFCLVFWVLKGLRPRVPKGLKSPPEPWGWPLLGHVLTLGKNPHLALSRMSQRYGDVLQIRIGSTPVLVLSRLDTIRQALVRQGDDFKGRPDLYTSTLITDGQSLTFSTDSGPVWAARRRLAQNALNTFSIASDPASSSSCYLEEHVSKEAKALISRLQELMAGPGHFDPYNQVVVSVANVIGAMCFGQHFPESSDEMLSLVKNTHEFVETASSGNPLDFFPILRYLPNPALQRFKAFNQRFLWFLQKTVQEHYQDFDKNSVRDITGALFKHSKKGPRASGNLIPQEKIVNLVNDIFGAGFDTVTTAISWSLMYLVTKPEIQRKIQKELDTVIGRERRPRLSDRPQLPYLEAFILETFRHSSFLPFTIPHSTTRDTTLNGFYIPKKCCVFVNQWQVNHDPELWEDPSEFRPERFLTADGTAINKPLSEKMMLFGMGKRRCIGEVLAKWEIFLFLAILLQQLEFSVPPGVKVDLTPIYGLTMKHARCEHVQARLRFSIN
# Cytochrome P450 3A4 = Cytochrome P450 3A4 (Homo sapiens, UniProt P08684);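 also: CYP3A4 tested as one member of a cytochrome P450 panel screen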
# [1] = Trypanosoma cruzi growth suppression in host cells – NIH3T3 host cells, beta-gal luminescence, confirmation (AID 2044); format: functional, cell-based;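 also: intracellular parasites grown in NIH/3T3 mouse fibroblasts as host cells; luminescent beta-galactosidase reporter signal from transgenic T. cruzi replicating inside host cells; inhibitors lower the luminescence signal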
# [2] = NIH3T3 cell viability loss – ATP luminescence, mouse fibroblasts, counter-screen, dose response (AID 2010); format: functional, cell-based;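 also: cells exposed to compound for about 90 hours before reading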
# Cytochrome P450 2C9 = Cytochrome P450 2C9 (Homo sapiens, UniProt P11712)
# [3] = tested on: Streptococcus sp. 'group A'; assay: Streptococcus pyogenes SK(-)GAS viability under kanamycin – luminescence, BacTiterGlo, confirmation, counter-screen for streptokinase expression inhibitor project, dose response (AID 1900); format: functional, organism-based
# Streptococcus = assay: GAS UMAA2166 growth inhibition – luminescence, BacTiterGlo, counter-screen for streptokinase expression inhibitor project, dose response (AID 1915); format: functional, organism-based;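 also: potency for reduction of bacterial viability or growth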
# [4] = Luminescence Cell-Based Dose Response HTS to Identify Inhibitors of 5'UTR Stem-Loop Driven Prion Protein mRNA Translation in H4 Neuroglioblastoma Cells. [Related pubchem assays: 1827 (Project Summary), 1813 (Primary HTS)]; format: functional
# [5] = alpha-synuclein stem-loop luciferase translation blockers – H4 neuroglioma cells, luminescence, confirmation (AID 1988); format: functional, cell-based
# Sequence of Cytochrome P450 3A4 (P08684 whole entry): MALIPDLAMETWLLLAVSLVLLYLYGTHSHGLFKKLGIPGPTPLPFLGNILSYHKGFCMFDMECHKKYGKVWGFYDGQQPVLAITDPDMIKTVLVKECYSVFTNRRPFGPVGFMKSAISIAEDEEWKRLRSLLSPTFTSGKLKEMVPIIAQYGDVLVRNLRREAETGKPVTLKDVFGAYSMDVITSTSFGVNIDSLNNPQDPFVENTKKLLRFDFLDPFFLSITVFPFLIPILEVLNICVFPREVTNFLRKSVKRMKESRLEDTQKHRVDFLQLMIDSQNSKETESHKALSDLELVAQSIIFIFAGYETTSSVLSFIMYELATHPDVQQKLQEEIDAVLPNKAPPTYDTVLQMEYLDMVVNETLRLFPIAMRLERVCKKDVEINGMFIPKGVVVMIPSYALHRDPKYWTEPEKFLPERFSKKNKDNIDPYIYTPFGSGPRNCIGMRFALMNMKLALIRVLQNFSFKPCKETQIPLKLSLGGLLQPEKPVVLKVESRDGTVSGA
# Sequence of Cytochrome P450 2C19 (P33261 whole entry): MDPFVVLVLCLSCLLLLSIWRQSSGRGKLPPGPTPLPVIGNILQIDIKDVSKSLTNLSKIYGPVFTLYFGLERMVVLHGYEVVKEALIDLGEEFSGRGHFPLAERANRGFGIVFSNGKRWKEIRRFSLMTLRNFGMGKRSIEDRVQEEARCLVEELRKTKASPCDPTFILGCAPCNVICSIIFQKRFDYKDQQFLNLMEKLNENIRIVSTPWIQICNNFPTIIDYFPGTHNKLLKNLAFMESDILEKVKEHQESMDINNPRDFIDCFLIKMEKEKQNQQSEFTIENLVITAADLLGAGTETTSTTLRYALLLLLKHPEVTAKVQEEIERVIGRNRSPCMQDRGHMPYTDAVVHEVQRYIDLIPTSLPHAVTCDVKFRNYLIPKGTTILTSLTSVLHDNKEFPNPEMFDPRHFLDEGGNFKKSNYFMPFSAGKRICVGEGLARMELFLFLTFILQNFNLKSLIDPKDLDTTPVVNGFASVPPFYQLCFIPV
# Sequence of Cytochrome P450 2C9 (P11712 whole entry): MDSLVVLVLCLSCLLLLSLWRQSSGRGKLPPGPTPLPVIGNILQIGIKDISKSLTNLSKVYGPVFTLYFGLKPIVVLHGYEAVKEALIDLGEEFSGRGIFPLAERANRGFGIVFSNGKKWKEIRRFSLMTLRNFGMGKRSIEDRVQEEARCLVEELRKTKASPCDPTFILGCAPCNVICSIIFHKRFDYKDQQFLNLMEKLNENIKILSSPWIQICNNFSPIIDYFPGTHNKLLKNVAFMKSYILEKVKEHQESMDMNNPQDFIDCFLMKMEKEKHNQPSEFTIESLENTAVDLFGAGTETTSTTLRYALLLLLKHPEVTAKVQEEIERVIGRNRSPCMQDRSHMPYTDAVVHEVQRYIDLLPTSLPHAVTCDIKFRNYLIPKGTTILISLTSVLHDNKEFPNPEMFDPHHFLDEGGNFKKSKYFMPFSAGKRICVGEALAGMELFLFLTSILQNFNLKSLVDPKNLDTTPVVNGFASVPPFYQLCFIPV
smiles,measurement,setting,value
CCOc1c2ccc(C(=O)NCCCCc3ccccc3)cc2nn1CC,AC50,Cytochrome P450 2C19; read-out: AC50,8.91 µM (inconclusive)
same,AC50,Cytochrome P450 1A2,6.31 µM (inconclusive)
CCCCC(=O)Nc1nnc(SCC(=O)NC2CCCC2)s1,AC50,Cytochrome P450 2C19; read-out: AC50,35.5 µM (inconclusive)
CC(=O)OC[C@@H]1O[C@H](C/C=N\OCC[C@H]2C=C[C@H](OC(C)=O)[C@@H](COC(C)=O)O2)C=C[C@@H]1OC(C)=O,AC50,Cytochrome P450 2C19,inconclusive
same,AC50,Cytochrome P450 3A4,3.16 µM (inconclusive)
CCN(c1ccccc1)S(=O)(=O)c1cc(C(=O)Nc2ccc(Br)cc2)ccc1F,EC50,[1],2.66 µM (active)
same,EC50,[2],> 60 µM (not active)
CNc1cc(-c2ccccc2CN(C)C)ncn1,AC50,Cytochrome P450 1A2,31.6 µM (inconclusive)
CC(C)(C)c1cc(Br)c(O)c(CN(Cc2cc(C(C)(C)C)cc(Br)c2O)C2CCCCC2)c1,AC50,Cytochrome P450 1A2,5.01 µM (inconclusive)
same,AC50,Cytochrome P450 2C9,3.16 µM (inconclusive)
C=C[C@]1(C)C[C@@H](OC(=O)CSCCN(CC)CC)[C@]2(C)C(C)CC[C@]3(CCC(=O)[C@H]32)[C@@H](C)[C@@H]1O (some centres not stated),EC50,[3],< 0.06 µM (active)
same,EC50,Streptococcus,0.182 µM (active)
O=C(c1cccc(C(F)(F)F)c1)C1CCCN(Cc2ccc(OCCO)cc2)C1 (configuration not stated),EC50,[1],0.402 µM (active)
same,EC50,[2],> 30 µM (not active)
Cc1cc(N2CCN(c3ccccc3)CC2)nc(NCc2ccccc2)n1,EC50,[1],0.809 µM (active)
same,EC50,[2],> 30 µM (not active)
CCN1CCN(Cc2ccc(NC(=O)c3cc(NC(=O)c4cc(-c5ccc(OC)cc5)[nH]n4)cc(OC)c3)cc2C(F)(F)F)CC1,EC50,[3],4.15 µM (active)
same,EC50,Streptococcus,7.21 µM (active)
CC(C)Oc1ccc(CSC(=N)N)cc1,AC50,Cytochrome P450 2C19; read-out: AC50,5.62 µM (inconclusive)
same,AC50,Cytochrome P450 1A2,22.4 µM (inconclusive)
O=C(NC1CCCCC1)C1CC=CCC1C(=O)OCC(Cl)=C(Cl)Cl (configuration not stated),AC50,Cytochrome P450 1A2,25.1 µM (inconclusive)
CN(C)CN1C(=O)S/C(=C2/C(=O)N(CN(C)C)c3ccccc32)C1=O,AC50,Cytochrome P450 1A2,0.794 µM (inconclusive)
COc1ccccc1CNc1cc(-c2ccccc2Cl)ncn1,AC50,Cytochrome P450 3A4,39.8 µM (inconclusive)
COc1nnc(OC)c2ccccc12,AC50,Cytochrome P450 2C19; read-out: AC50,0.0631 µM (inconclusive)
CCOc1c2ccc(C(=O)NCc3ccco3)cc2nn1CC,AC50,Cytochrome P450 3A4,31.6 µM (inconclusive)
same,AC50,Cytochrome P450 2C9,10 µM (inconclusive)
COc1cccc(CNCCNC(=O)c2nonc2N)c1,AC50,Cytochrome P450 1A2,39.8 µM (inconclusive)
Cc1nc2cnc(N3CCN(C)CC3)nc2n(CCc2ccccc2)c1=O,AC50,Cytochrome P450 3A4,15.8 µM (inconclusive)
N#CCCn1c(=O)c(-c2ccccc2)nc2cnc(N3CCOCC3)nc21,AC50,Cytochrome P450 1A2,10 µM (inconclusive)
COc1ccc(Oc2ncc3nc(C)c(=O)n(CCC#N)c3n2)cc1,AC50,Cytochrome P450 1A2,25.1 µM (inconclusive)
CC(C)(C)c1ccccc1OCC(=O)Nc1ccccc1C(=O)NCc1cccnc1,EC50,[1],3.61 µM (active)
same,EC50,[2],> 60 µM (not active)
O=c1cnc2cnc(N3CCNCC3)nc2n1Cc1ccc(F)cc1,AC50,Cytochrome P450 2C9,20 µM (inconclusive)
Cn1cccc1C(=O)N1CCC2(CCN(Cc3ccncc3)CC2)CC1,AC50,Cytochrome P450 2C19; read-out: AC50,15.8 µM (inconclusive)
same,AC50,Cytochrome P450 1A2,15.8 µM (inconclusive)
same,AC50,Cytochrome P450 3A4,12.6 µM (inconclusive)
CC(C)CCn1nnnc1C(c1ccc(F)cc1)N1CCN(C(=O)c2ccco2)CC1 (configuration not stated),AC50,Cytochrome P450 2C9,11.2 µM (inconclusive)
Cc1c(S(=O)(=O)O)ccc(/N=N\c2c(O)c(C(=O)O)cc3ccccc23)c1Cl,AC50,Cytochrome P450 1A2,5.01 µM (inconclusive)
Cc1cccc(NC(=O)c2cc(=O)c3ccccc3o2)n1,AC50,Cytochrome P450 2C19; read-out: AC50,14.1 µM (inconclusive)
same,AC50,Cytochrome P450 3A4,25.1 µM (inconclusive)
same,AC50,Cytochrome P450 2C9,3.16 µM (inconclusive)
Cc1nc2cnc(N3CCNCC3)nc2n(Cc2ccc(F)cc2)c1=O,AC50,Cytochrome P450 2C19,inconclusive
same,AC50,Cytochrome P450 2C9,25.1 µM (inconclusive)
CCN1CCN(c2ccc(S(=O)(=O)N3CCCCC3)cc2NC(=O)c2ccc(C)o2)CC1,EC50,[1],2.01 µM (active)
same,EC50,[2],> 60 µM (not active)
CCN(C(=O)COC(=O)c1cc(-c2ccc3cc(OC)ccc3c2)nc2ccccc12)C1CCS(=O)(=O)C1 (configuration not stated),EC50,[4],13.9 µM (active)
same,EC50,[5],11 µM (active)
Cc1cc(C)c(C#N)c(SCC(=O)Nc2nnc(-c3ccccc3)s2)n1,EC50,[1],> 30 µM (not active)
same,EC50,[2],> 30 µM (not active)
Cc1ccc(S(=O)(=O)N[C@H](CN)C(=O)O)cc1,AC50,Cytochrome P450 2C19,inconclusive
O=C(O)C1CCN(c2ncnc3ccc(-c4ccccc4C(F)(F)F)cc23)CC1,AC50,Cytochrome P450 3A4,39.8 µM (inconclusive)
C=CCNC(=O)c1ccc(-c2nc(-c3ccc(Cl)c(Cl)c3)cs2)cc1,AC50,Cytochrome P450 2C19; read-out: AC50,28.2 µM (inconclusive)
same,AC50,Cytochrome P450 3A4,7.94 µM (inconclusive)
Fc1cccc(C[n+]2csc3ccccc32)c1,EC50,[1],1.99 µM (active)
same,EC50,[2],> 60 µM (not active)
Cc1nc2cnc(N3CCNCC3)nc2n(C)c1=O,AC50,Cytochrome P450 2C19,inconclusive
same,AC50,Cytochrome P450 3A4,15.8 µM (inconclusive)
COC(=O)[C@@]1(Cc2ccc(F)cc2)[C@H]2c3cc(C(=O)N4CCCC4)n(CCF)c3C[C@H]2CN1C(=O)c1ccccc1,AC50,Cytochrome P450 1A2,15.8 µM (inconclusive)
CCCS(=O)(=O)N1CCCC(C(=O)N2CCN(c3ccccc3)CC2)C1 (configuration not stated),AC50,Cytochrome P450 2C19; read-out: AC50,6.31 µM (inconclusive)
same,AC50,Cytochrome P450 1A2,0.00501 µM (inconclusive)
same,AC50,Cytochrome P450 3A4,14.1 µM (inconclusive)
same,AC50,Cytochrome P450 2C9,14.1 µM (inconclusive)
CCCS(=O)(=O)N1CCCC(C(=O)NCCN2CCC(Cc3ccccc3)CC2)C1 (configuration not stated),AC50,Cytochrome P450 2C9,5.01 µM (inconclusive)
CC(=O)c1ccc(N2CCN(c3ccc(S(=O)(=O)NCCN(C)C)cc3[N+](=O)[O-])CC2)cc1,EC50,[1],0.454 µM (active)
same,EC50,[2],> 16 µM (not active)
COc1ccc(N(C(=O)COc2ccccc2OC)S(=O)(=O)c2ccc(C)cc2)cc1,AC50,Cytochrome P450 1A2,4.47 µM (inconclusive)
COc1ccccc1-c1cc2nc(C)c(CCC(=O)NCc3ccc(F)cc3)c(C)n2n1,EC50,[1],2.06 µM (active)
same,EC50,[2],> 60 µM (not active)
O=S(=O)(c1ccc2ccccc2c1)N1CCC(c2nc(-c3ccncc3)no2)CC1,EC50,[1],0.564 µM (active)
same,EC50,[2],> 60 µM (not active)
Cc1cc(C(=O)N2CCCC(N3CCN(c4ccccc4C)CC3)C2)n(C)n1 (configuration not stated),EC50,[1],> 30 µM (not active)
same,EC50,[2],> 30 µM (not active)
COc1ccccc1CNc1ncnc2ccc(-c3cccnc3)cc12,AC50,Cytochrome P450 2C19; read-out: AC50,20 µM (inconclusive)
CC(C)(Oc1ccc(-c2cccc3ccccc23)cc1)C(=O)O,AC50,Cytochrome P450 2C19,inconclusive
same,AC50,Cytochrome P450 2C9,0.398 µM (inconclusive)
Cc1ccc2c(c1)C1CN(C)CCC1N2C(=S)NC(=O)c1ccc(Br)cc1 (configuration not stated),EC50,[1],0.828 µM (active)
same,EC50,[2],41.5 µM (active)
CCCCN1C(=O)CCC(C(=O)O)C1c1ccccc1 (configuration not stated),AC50,Cytochrome P450 2C19,inconclusive
O=C(NCc1cccnc1)c1ccc(-c2cc(Cl)ccc2Cl)o1,EC50,[1],1.72 µM (active)
same,EC50,[2],> 30 µM (not active)
CC(C)N(CCNC(=O)C1CCN(S(=O)(=O)N2CCOCC2)CC1)Cc1ccccc1,AC50,Cytochrome P450 2C19; read-out: AC50,39.8 µM (inconclusive)
same,AC50,Cytochrome P450 2C9,20 µM (inconclusive)
C=CCNC(=O)c1onc(CSc2ccc(F)cc2)c1C(=O)O,AC50,Cytochrome P450 3A4,22.4 µM (inconclusive)
Cc1ccc(C)c(NC(=O)C2(C)CC3c4ccccc4C2c2ccccc23)c1 (configuration not stated),AC50,Cytochrome P450 2C19; read-out: AC50,0.00562 µM (inconclusive)
same,AC50,Cytochrome P450 2C9,10 µM (inconclusive)
NC(=S)SCCC(=O)O,AC50,Cytochrome P450 1A2,1.58 µM (inconclusive)
CCSc1nnc2n(N)c(=O)c3ccccc3n12,AC50,Cytochrome P450 3A4,15.8 µM (inconclusive)
N#C[C@H](Cc1ccc(O)cc1)c1ccc(O)cc1,AC50,Cytochrome P450 2C19; read-out: AC50,2 µM (inconclusive)
same,AC50,Cytochrome P450 2C9,39.8 µM (inconclusive)
CCCn1c(=O)c2c(ncn2C)n(CCC)c1=O,AC50,Cytochrome P450 3A4,20 µM (inconclusive)
COCc1nc2c([nH]1)c(=O)n(C)c(=O)n2CC(C)C,AC50,Cytochrome P450 3A4,1.26 µM (inconclusive)
COc1cccc(/N=c2\oc3c(C)ncc(CO)c3cc2C(N)=O)c1,AC50,Cytochrome P450 2C19,inconclusive
same,AC50,Cytochrome P450 2C9,11.2 µM (inconclusive)
C/C(=N/CCN1CCN(C(=S)Nc2ccccc2)CC1)C1=C(O)CC(C)(C)CC1=O,AC50,Cytochrome P450 2C9,28.2 µM (inconclusive)
COc1ccc(/C=N/NC(=O)CCCC(=O)NC2CCCCC2)cc1,AC50,Cytochrome P450 2C19; read-out: AC50,14.1 µM (inconclusive)
same,AC50,Cytochrome P450 2C9,10 µM (inconclusive)
COc1ccc(C(=O)Nc2cc(OC)cc(OC)c2)cc1,AC50,Cytochrome P450 2C9,22.4 µM (inconclusive)
